Experimental findings from patent US20220125930A1, “SYSTEM AND METHOD FOR FABRICATION OF LARGE, POROUS DRUG-SILK MATERIALS USING CRYOGRANULATION” (Trustees of Tufts College, priority 2019, published 2022) are described below.

The assay relates to bioluminescent S. aureus Xen29. Kind of assay: Kirby-Bauer disc diffusion test of antibiotic-loaded RSFPs. Type of assay: cell-based. The following applies: zones of inhibition on XEN29 cultures after 12 hours, vs blank RSFPs. The procedure:
Antimicrobial activity of tobramycin sulfate (TS), gentamicin sulfate (GS) and kanamycin sulfate (KS) encapsulated in RSFPs sized 100-500 mcm was assessed by Kirby-Bauer disc diffusion tests, performed according to methods outlined in the NCCLS Approved Standard M2-A7. A stock suspension of bioluminescent S. aureus Xen29 was prepared in sterile physiological solution and turbidity (expressed as optical density; OD) was adjusted against the McFahrland standard to match the 0.5 level. A sterilized cotton swab was immersed in the bacterial suspension, and a lawn of bacteria was applied on the Luria Bertani (LB) plates. A 10-mm biopsy punch was used to cut two circular fragments from each of the freshly infected plates, and both fragments were coated with antibiotic-loaded RSFPs by quick blotting against the pool of particles. The freshly mounted samples were inserted […] II system (Caliper life Science, America). The exposure time (1 s), excitation filter (430 nm), and emission filter with emission wavelength from 575 to 650 nm (DsRed) were set prior to detection.
A general note: Agar diffusion results depend on both activity and mobility in agar.

Take gentamicin sulfate [GS]: the “post-processing antimicrobial activity (antibiotic function) of cryoencapsulated antibiotics” value was “preserved”.
Take tobramycin sulfate [TS]: the “post-processing antimicrobial activity (antibiotic function) of cryoencapsulated antibiotics” value is “preserved”.
